This note sets out measurements from PubChem BioAssay (NCI).

What all share (experiment): NCI tumour cell line growth inhibition, 48 h
The subject of assay [1] is UACC-62 melanoma.
In assay [2] the test system is KM12 colon.
Assay [3] deals with A549 NSCLC.
For assay [4], the system named is LXFL 529 NSCLC.
The subject of assay [5] is SN12C renal.
Assay [6] concerns DMS 273 small cell lung.
The test system of assay [7] is NCI-H522 lung.
The test system of assay [8] is LOX IMVI melanoma.
Assay [9] deals with SK-MEL-2 melanoma.
Assay [10] deals with HS 578T breast.

Molecules are shown by their SMILES.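 All cell lines were grown in 96-well plates and treated with compound for 48 hours. GI50: concentration for 50% inhibition of growth. The concentration for full growth arrest is given as TGI.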

As for `COC(=O)C12C3C4C1C1C2C3C41C(=O)N(C(C)C)C(C)C` (configuration not stated), the TGI in assay [1], in [2], in assay [3], in assay [4], in [5] and in assay [6] was above 100 µM in each case. Besides, the TGI in [7] is above 100 µM.

In the case of `[N-]=[N+]=Nc1c(Br)c(=O)[nH]c(=O)n1COCCO`, the TGI in [1], in assay [8], in [2], in assay [3], in assay [4] and in [5] was above 100 µM in each case. Besides, the TGI in assay [6] and in assay [7] was above 100 µM each time.

For the compound `O=C1C2=C(c3ccccc31)C(c1ccc(F)cc1)N1C(=O)CCSC1=N2` (configuration not stated), the TGI in [1], in [2], in [3], in assay [4], in assay [5] and in assay [6] was above 100 µM in each case. Besides, the TGI in assay [7] and in [9] was above 100 µM in each case.

As to `COC(=O)/C(=N/O)C(C(=O)OC)C(=O)C(=O)Nc1c(Cl)cc(C)cc1S(=O)(=O)O` (configuration not stated), the TGI in assay [1], in assay [8], in assay [2], in assay [3], in assay [4] and in [5] was above 100 µM in each case. Besides, the TGI in assay [6] was 33.2 µM; in assay [7], above 100 µM; in assay [9], above 100 µM.

Take `O=C(O)Cc1cc(=O)[nH]c2c1C(=O)CCC2`: the TGI in [2], in [4], in assay [5], in assay [6], in assay [7] and in [9] was above 100 µM throughout.

Turning to `O=C1C2=C(c3ccccc31)C(c1ccc(Cl)cc1)NC(=S)N2` (configuration not stated), the TGI in assay [1] is 70.9 µM; in assay [2] it was 52.5 µM; in assay [3], 39 µM; in assay [4], 29.5 µM; in assay [5], 40.3 µM; in assay [6], 42.8 µM. For the same compound, the TGI in assay [7] was found to be 56.2 µM; in assay [9], 58.7 µM.

Consider `Cc1cc(Cl)ccc1NC(=O)CCCC(=O)C(C(=O)c1ccccc1)c1ccccc1` (configuration not stated), for which the TGI in assay [1], in assay [8], in assay [2], in assay [4], in [5] and in assay [6] was above 100 µM each time. In addition, the TGI in [7] and in assay [9] was above 100 µM in each case.

In the case of `CCCCCCCCCCCCCCC(O)C1CCC(C(O)CCC(O)CCCCCC(O)CC2=CC(C)OC2=O)O1` (configuration not stated), the TGI in assay [1] was 13.3 µM; in assay [8], 4.59 µM; in assay [3], 13.2 µM; in assay [4] it was 13 µM; in assay [5] it was 9.24 µM; in assay [6] it was 4.75 µM. The TGI in [7] turned out to be 7.4 µM; in assay [9], 9.03 µM.

For the compound `COC(=O)C1=C(c2cc(OC)c(OC)c(OC)c2)O[C@H](c2ccc3c(c2)OCO3)[C@H]1COC(C)=O`, the TGI in [8] is above 100 µM; in [2] it was above 100 µM; in [4], 69.2 µM; in assay [5], 96.2 µM; in assay [6], above 100 µM; in assay [9], above 100 µM.

On to `CCOC(=O)/C(C#N)=C(N)/C(=N\Nc1cccc(C(F)(F)F)c1)C(=O)OCC`, for which the TGI in assay [1], in [8], in assay [3], in assay [4], in [5] and in [6] was above 100 µM in each case. Moreover, the TGI in assay [7] and in assay [9] was above 100 µM throughout.

Turning to `c1ccc(COc2cccc3cccnc23)cc1`, the TGI in assay [1], in assay [8], in assay [2], in assay [3], in [4] and in assay [5] was above 100 µM in each case. Besides, the TGI in assay [7] is above 100 µM.

For the compound `CC1=NN(C(=O)c2cc(Cl)cc([N+](=O)[O-])c2)C(=O)C1N=Nc1ccccc1C(=O)O` (configuration not stated), the TGI in assay [1], in [2], in assay [3], in [4], in assay [5] and in [6] was above 100 µM each time. For the same compound, the TGI in assay [7] and in assay [9] was above 100 µM throughout.

As to `Cc1cccc(O)c(=O)c1`, the TGI in assay [1], in assay [8], in assay [2], in [3], in assay [4] and in [5] was above 100 µM throughout. Further, the TGI in [6] and in assay [7] was above 100 µM throughout.

For `COc1cc(CNC(=O)CCSc2nc3ccccc3c(=O)n2Cc2cc(OC)c(OC)c(OC)c2)cc(OC)c1OC`, the GI50 in assay [1] is 2920 nM; in assay [8] it was 7.05 µM; in [2], 3.98 µM; in assay [3], 6.33 µM; in assay [10] it was 5.24 µM; in assay [5], 8.1 µM. The GI50 in assay [7] is 6.55 µM; in assay [9], 2820 nM. Also, the TGI in [1] was 20.6 µM; in [8], above 100 µM; in [2] it was above 100 µM; in [3] it was above 100 µM; in assay [10] it was above 100 µM; in assay [5] it was above 100 µM. The values for the TGI in assay [7] and in assay [9] were 27.5 µM and 8.14 µM, respectively.

Take `Cc1ccc(C)c2c1CCc1cc3ccccc3nc1-2`: the TGI in assay [1], in assay [2], in [3], in [4], in assay [5] and in assay [7] was above 100 µM each time. Moreover, the TGI in assay [9] is above 100 µM.
